One series in a line: in vitro. To be noted: human, uninfected MT-4 cells, CC50 (nM), same protocol as Test A, CellTiter-Glo. The method, boiled down:
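Cytoprotection read-out: CellTiter-Glo chemiluminescence after 5 days at 37 °C of HIV-IIIb-infected MT-4 cells (m.o.i. 0.003) with compound in 10-point 3-fold dilutions, quadruplicate, 10% FBS. Cytotoxicity (CC50) measured identically without virus.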
(In general: Cellular ATP, detected with luciferase, serves as a proxy for viable cell number.)

For another series, the system named is HIV-IIIb. As to the kind of experiment: Test A: Antiviral assay in MT4 cells. In kind it is cell-based, HIV-1. To be noted: Human immunodeficiency virus 1, IIIB, MT4, 120 h, read-out: % inhibition at 2 μM, percent inhibition of virus-induced cell killing, from dose response curve at 2 uM drug; MT-4 cells infected with HIV-IIIb, 5 days, CellTiter-Glo.

The compound `Cc1cc2ccccc2n1CC(=O)N[C@@H](Cc1cc(F)cc(F)c1)c1ncccc1-c1ccc(F)c(C(N)=O)c1` [Example 367, (S)-5-(2-(2-(3,5-difluorophenyl)-1-(2-(2-methyl-1H-indol-1-yl)acetamido)ethyl)pyridin-3-yl)-2-fluorobenzamide] returned a CC50 at 5 days in “in vitro” of 13400 nM. In the series on HIV-IIIb, the inhibition at 2 µM was found to be 20%.

`NC(=O)c1cc(-c2cccnc2[C@H](Cc2cc(F)cc(F)c2)NC(=O)Cn2cnc3c(Cl)nccc32)ccc1F` [Example 368, (S)-5-(2-(1-(2-(4-chloro-1H-imidazo[4,5-c]pyridin-1-yl)acetamido)-2-(3,5-difluorophenyl)ethyl)pyridin-3-yl)-2-fluorobenzamide]: the CC50 at 5 days in “in vitro” came out at 47300 nM. In the series on HIV-IIIb, the inhibition at 2 µM was 2%.

For the compound `CC1(C)CC(=O)c2c(C(F)(F)F)nn(CC(=O)N[C@@H](Cc3cc(F)cc(F)c3)c3ncccc3-c3ccc(F)c(C(N)=O)c3)c2C1` [Example 369, (S)-5-(2-(2-(3,5-difluorophenyl)-1-(2-(6,6-dimethyl-4-oxo-3-(trifluoromethyl)-4,5,6,7-tetrahydro-1H-indazol-1-yl)acetamido)ethyl)pyridin-3-yl)-2-fluorobenzamide], the 50% cytotoxic concentration (CC50) at 5 days in “in vitro” is more than 53000 nM. Moreover, the inhibition at 2 µM with HIV-IIIb was 5%.

Regarding `NC(=O)c1cc(-c2cccnc2[C@H](Cc2cc(F)cc(F)c2)NC(=O)Cn2nc(C(F)F)c3c2C(=O)CCC3)ccc1F` [Example 370, (S)-5-(2-(1-(2-(3-(difluoromethyl)-7-oxo-4,5,6,7-tetrahydro-1H-indazol-1-yl)acetamido)-2-(3,5-difluorophenyl)ethyl)pyridin-3-yl)-2-fluorobenzamide], the half-maximal cytotoxic concentration (CC50) at 5 days in “in vitro” was found to be 22700 nM. Besides, in the series on HIV-IIIb, the inhibition at 2 µM is 33%.

In the series “in vitro”, `Nc1ncc(-c2cccnc2[C@H](Cc2cc(F)cc(F)c2)NC(=O)Cn2nc(C(F)F)c3c2C(F)(F)CCC3(F)F)cc1C(F)(F)F` [Example 371, (S)—N-(1-(6′-amino-5′-(trifluoromethyl)-3,3′-bipyridin-2-yl)-2-(3,5-difluorophenyl)ethyl)-2-(3-(difluoromethyl)-4,4,7,7-tetrafluoro-4,5,6,7-tetrahydro-1H-indazo-1-yl)acetamide] registered a cytotoxic concentration (CC50) at 5 days of 7590 nM. In the series on HIV-IIIb, the inhibition at 2 µM is 83%.

Turning to `Cc1c(C#N)c(C(F)(F)F)nn1CC(=O)N[C@@H](Cc1cc(F)cc(F)c1)c1ncccc1-c1ccc(N(C)C)c(C(N)=O)c1` [Example 372, (S)-5-(2-(1-(2-(4-cyano-5-methyl-3-(trifluoromethyl)-1H-pyrazol-1-yl)acetamido)-2-(3,5-difluorophenyl)ethyl)pyridin-3-yl)-2-(dimethylamino)benzamide], in “in vitro”, the CC50 at 5 days was determined as 24000 nM. Also, in the series on HIV-IIIb, the inhibition at 2 µM turned out to be 0%.

In the case of `COc1ccc2cccc(CC(=O)N[C@@H](Cc3cc(F)cc(F)c3)c3ncccc3-c3ccc(F)c(C#N)c3)c2c1` [Example 373, (S)—N-(1-(3-(3-cyano-4-fluorophenyl)pyridin-2-yl)-2-(3,5-difluorophenyl)ethyl)-2-(7-methoxynaphthalen-1-yl)acetamide], the midpoint of cytotoxicity in “in vitro”, the CC50 at 5 days, lay at 8140 nM. The inhibition at 2 µM in the series on HIV-IIIb was 0%.

For the compound `Cc1nc(C(F)(F)F)nn1CC(=O)N[C@@H](Cc1cc(F)cc(F)c1)c1ncccc1-c1ccc(F)c(C(N)=O)c1` [Example 374, (S)-5-(2-(2-(3,5-difluorophenyl)-1-(2-(5-methyl-3-(trifluoromethyl)-1H-1,2,4-triazol-1-yl)acetamido)ethyl)pyridin-3-yl)-2-fluorobenzamide], the CC50 at 5 days in “in vitro” was more than 53200 nM. The inhibition at 2 µM with HIV-IIIb was determined as 5%.

`Nc1ccc(-c2cccnc2[C@H](Cc2cc(F)cc(F)c2)NC(=O)Cn2nc(C(F)F)c3c2C(F)(F)CCC3(F)F)cn1` [Example 375, (S)—N-(1-(6′-amino-3,3′-bipyridin-2-yl)-2-(3,5-difluorophenyl)ethyl)-2-(3-(difluoromethyl)-4,4,7,7-tetrafluoro-4,5,6,7-tetrahydro-1H-indazol-1-yl)acetamide]: in the series “in vitro”, half-maximal cytotoxicity (CC50 at 5 days) was put at 15200 nM. Also, the inhibition at 2 µM in the series with HIV-IIIb is 98%.

With `Cc1c(C#N)c(C(F)(F)F)nn1CC(=O)N[C@@H](Cc1cc(F)cc(F)c1)c1ncccc1-c1ccc(F)c(C(N)=O)c1` [Example 376, (S)-5-(2-(1-(2-(4-cyano-5-methyl-3-(trifluoromethyl)-1H-pyrazol-1-yl)acetamido)-2-(3,5-difluorophenyl)ethyl)pyridin-3-yl)-2-fluorobenzamide], half-maximal cytotoxicity in the series “in vitro” (CC50 at 5 days) was put at 29100 nM. Besides, the inhibition at 2 µM in the series with HIV-IIIb is 2%.

Regarding `N#Cc1cc(-c2cccnc2[C@H](Cc2cc(F)cc(F)c2)NC(=O)Cc2c[nH]c3ccc(F)cc23)ccn1` [Example 377, (S)—N-(1-(2′-cyano-3,4′-bipyridin-2-yl)-2-(3,5-difluorophenyl)ethyl)-2-(5-fluoro-1H-indol-3-yl)acetamide], it took 18600 nM to reach half-maximal cytotoxicity in the series “in vitro” (CC50 at 5 days). For the same compound, in the series on HIV-IIIb, the inhibition at 2 µM is 22%.

As to `CC(C)(C)OC(=O)N1CCc2c(C(F)(F)F)nn(CC(=O)N[C@@H](Cc3cc(F)cc(F)c3)c3ncccc3-c3ccc(F)c(C(N)=O)c3)c2C1` [Example 378, (S)-tert-butyl 1-(2-(1-(3-(3-carbamoyl-4-fluorophenyl)pyridin-2-yl)-2-(3,5-difluorophenyl)ethylamino)-2-oxoethyl)-3-(trifluoromethyl)-4,5-dihydro-1H-pyrazolo[3,4-c]pyridine-6(7H)-carboxylate], the CC50 at 5 days in the series “in vitro” stood at 17100 nM. Also, the inhibition at 2 µM with HIV-IIIb amounted to 5%.

In the series “in vitro”, `O=C(Cn1nc(C(F)(F)F)c2c1C1CC1CC2)N[C@@H](Cc1cc(F)cc(F)c1)c1ncccc1-c1cnc2[nH]ccc2c1` (stereo partly drawn) [Example 379, N—((S)-1-(3-(1H-pyrrolo[2,3-b]pyridin-5-yl)pyridin-2-yl)-2-(3,5-difluorophenyl)ethyl)-2-(3-(trifluoromethyl)-5,5a,6,6a-tetrahydrocyclopropa[g]indazol-1(4H)-yl)acetamide] had a CC50 at 5 days of 9240 nM. For the same compound, the inhibition at 2 µM in the series on HIV-IIIb is 112%.

Compound `NC(=O)c1cc(-c2cccnc2[C@H](Cc2cc(F)cc(F)c2)NC(=O)Cn2nc(C(F)F)c3c2C(F)(F)CCC3)ccc1F` [Example 380, (S)-5-(2-(1-(2-(3-(difluoromethyl)-7,7-difluoro-4,5,6,7-tetrahydro-1H-indazol-1-yl)acetamido)-2-(3,5-difluorophenyl)ethyl)pyridin-3-yl)-2-fluorobenzamide] had a half-maximal cytotoxic concentration (CC50) at 5 days in “in vitro” of 18300 nM. Further, the inhibition at 2 µM in the series on HIV-IIIb worked out at 97%.

In the series “in vitro”, `NC(=O)c1cc(-c2cccnc2[C@H](Cc2cc(F)cc(F)c2)NC(=O)Cn2nc3c(c2C(F)(F)F)C(F)(F)C2CC32)ccc1F` (stereo partly drawn) [Example 381, 5-(2-((1S)-1-(2-(4,4-difluoro-3-(trifluoromethyl)-4,4-a,5,5a-tetrahydro-2H-cyclopropa[4,5]cyclopenta[1,2-c]pyrazol-2-yl)acetamido)-2-(3,5-difluorophenyl)ethyl)pyridin-3-yl)-2-fluorobenzamide] returned a CC50 at 5 days of 24900 nM. Besides, the inhibition at 2 µM in the series on HIV-IIIb amounted to 1%.

As for `NC(=O)c1cccc(-c2cccnc2[C@H](Cc2cc(F)cc(F)c2)NC(=O)Cn2cnc3c2CCCC3)c1` [Example 382, (S)-3-(2-(2-(3,5-difluorophenyl)-1-(2-(4,5,6,7-tetrahydro-1H-benzo[d]imidazol-1-yl)acetamido)ethyl)pyridin-3-yl)benzamide], the cytotoxic concentration (CC50) at 5 days in “in vitro” was more than 39900 nM. The inhibition at 2 µM in the series on HIV-IIIb amounted to 85%.

Broadly, the CC50 is the concentration that lowers cell viability or growth by half. Higher therefore signals lower toxicity to the cells. In general, inhibition refers to the drop in the measured response relative to a control, in per cent.
